Experimental data from the NIST ThermoML archive (doi:10.1021/je3011979).

Legend:
[1] = Liquid; for mass density: 101 kPa, Vibrating tube method; for vapor or sublimation pressure: Ebulliometric method (Recirculating still)
[2] = refractive index (Na D-line) (dimensionless); details: 101.33 kPa, Liquid, Standard Abbe refractometry
[3] = xn = mol fraction of the nth substance listed; details: 101 kPa, Liquid, Vibrating tube method
[4] = excess molar enthalpy (molar enthalpy of mixing); xn = mol fraction of the nth substance listed; details: 291.15 K, 101 kPa, Liquid, Calvet calorimetry

CCCCCCCCCC [decane]
Details	mass density, 291.15 K [kg/m3]	mass density, 298.15 K [kg/m3]	mass density, 318.15 K [kg/m3]	mass density, 328.15 K [kg/m3]	refractive index, 298.15 K	refractive index, 318.15 K	vapor or sublimation pressure, 447.27 K [kPa]
[1]	731.2	726.2	710.9	703.3	–	–	101.32
[2]	–	–	–	–	1.4096	1.4008	–

CCCCCCCCCC [decane] + CCCOC(C)=O
[3], x2 = 0
Details	mass density [kg/m3]
291.15 K	731.2
298.15 K	726.2
318.15 K	710.9
328.15 K	703.3

CCCCCCC [heptane]
Details	mass density, 291.15 K [kg/m3]	mass density, 298.15 K [kg/m3]	mass density, 318.15 K [kg/m3]	mass density, 328.15 K [kg/m3]	refractive index, 298.15 K	refractive index, 318.15 K	vapor or sublimation pressure, 371.55 K [kPa]
[1]	685.3	679.5	662.1	653.7	–	–	101.32
[2]	–	–	–	–	1.3852	1.3748	–

CCCCCCC [heptane] + CCCOC(C)=O
[3], x2 = 0
Details	mass density [kg/m3]
291.15 K	685.3
298.15 K	679.5
318.15 K	662.1
328.15 K	653.7

CCCCCC [hexane]
Details	mass density, 291.15 K [kg/m3]	mass density, 298.15 K [kg/m3]	mass density, 318.15 K [kg/m3]	mass density, 328.15 K [kg/m3]	refractive index, 298.15 K	refractive index, 318.15 K	vapor or sublimation pressure, 341.89 K [kPa]
[1]	661.2	654.8	636.7	627.2	–	–	101.32
[2]	–	–	–	–	1.3723	1.3615	–

CCCCCC [hexane] + CCCOC(C)=O
[3], x2 = 0
Details	mass density [kg/m3]
291.15 K	661.2
298.15 K	654.8
318.15 K	636.7
328.15 K	627.2

CCCCCCCCC [nonane]
Details	mass density, 291.15 K [kg/m3]	mass density, 298.15 K [kg/m3]	mass density, 318.15 K [kg/m3]	mass density, 328.15 K [kg/m3]	refractive index, 298.15 K	refractive index, 318.15 K	vapor or sublimation pressure, 423.94 K [kPa]
[1]	719.2	713.9	698.1	690.2	–	–	101.32
[2]	–	–	–	–	1.4031	1.3938	–

CCCCCCCCC [nonane] + CCCOC(C)=O
[3], x2 = 0
Details	mass density [kg/m3]
291.15 K	719.2
298.15 K	713.9
318.15 K	698.1
328.15 K	690.2

CCCCCCCC [octane]
Details	mass density, 291.15 K [kg/m3]	mass density, 298.15 K [kg/m3]	mass density, 318.15 K [kg/m3]	mass density, 328.15 K [kg/m3]	refractive index, 298.15 K	refractive index, 318.15 K	vapor or sublimation pressure, 398.85 K [kPa]
[1]	704.1	698.6	682.2	674.1	–	–	101.32
[2]	–	–	–	–	1.3952	1.3855	–

CCCCCCCC [octane] + CCCOC(C)=O
[3], x2 = 0
Details	mass density [kg/m3]
291.15 K	704.1
298.15 K	698.6
318.15 K	682.2
328.15 K	674.1

CCCCC [pentane]
Details	mass density, 291.15 K [kg/m3]	mass density, 298.15 K [kg/m3]	refractive index, 298.15 K	vapor or sublimation pressure, 309.24 K [kPa]
[1]	628.2	621.4	–	101.32
[2]	–	–	1.3545	–

CCCCC [pentane] + CCCOC(C)=O
mass density [kg/m3], [3]
Details	291.15 K	298.15 K
x2 = 0	628.2	621.4
x2 = 0.0101	–	623.7
x2 = 0.0121	631.2	–
x2 = 0.0346	–	629.8
x2 = 0.0427	638.8	–
x2 = 0.0754	–	640
x2 = 0.078	647.7	–
x2 = 0.1377	–	655.9
x2 = 0.1417	664	–
x2 = 0.1977	–	671.4
x2 = 0.2048	680.3	–
x2 = 0.2734	698.2	–
x2 = 0.283	–	693.6
x2 = 0.3338	714.1	–
x2 = 0.3439	–	709.7
x2 = 0.3934	729.8	–
x2 = 0.4072	–	726.4
x2 = 0.4636	748.4	–
x2 = 0.4881	–	747.7
x2 = 0.5218	–	756.5
x2 = 0.5224	763.9	–
x2 = 0.5876	781.1	–
x2 = 0.5968	–	776.4
x2 = 0.6565	799.3	792.1
x2 = 0.7085	–	805.9
x2 = 0.7136	814.4	–
x2 = 0.7697	829.2	–
x2 = 0.8277	844.6	–
x2 = 0.8437	–	841.6
x2 = 0.8911	861.3	–
x2 = 0.9205	–	861.8
x2 = 0.923	869.7	–

[4]
Details	excess molar enthalpy [kcal/mol]
x2 = 0.0667	0.0535
x2 = 0.1334	0.097
x2 = 0.2047	0.147
x2 = 0.2753	0.186
x2 = 0.3414	0.2185
x2 = 0.4028	0.2361
x2 = 0.461	0.2452
x2 = 0.5088	0.2464
x2 = 0.5257	0.245
x2 = 0.5824	0.2326
x2 = 0.6434	0.2141
x2 = 0.7089	0.188
x2 = 0.7812	0.152
x2 = 0.8537	0.107
x2 = 0.9242	0.0595
